Consider 8 compounds from ChEMBL document CHEMBL5052819, “Peptide targeting gip and glp-2 receptors for treating bone disorders” (2020).

For one test, the system named is RAW264.7. In words: Inhibition of RANKL-induced osteoclastogenesis in mouse RAW264.7 cells measured after 110 hrs by TRAcP staining based assay. The conditions noted are these: RAW264.7, 110 h. Type of test: functional, cell-based.
Test [1] in a line: Toxicity in ovariectomized BALB/c mouse assessed as effect on body mass at 25 to 100 nmol/kg/day, sc.
For a further test, the system named is HEK293. In words: Activation of GIP/GLP2 receptor transfected in human HEK293 cells assessed as increase in intracellular cAMP level at 1 nM. The test is classed as cell-based. The conditions noted are these: filed as activator.

Each structure is given as a SMILES string. Calls of active or inactive are those of the source. No cut-off for these calls is given here.

On to `CC[C@H](C)[C@H](NC(=O)[C@H](CO)NC(=O)[C@H](Cc1ccccc1)NC(=O)[C@H](CC(=O)O)NC(=O)[C@H](CO)NC(=O)[C@@H](NC(=O)[C@H](Cc1ccccc1)NC(=O)[C@H](CO)NC(=O)CNC(=O)[C@H](CCC(=O)O)NC(=O)CNC(=O)[C@@H](N)Cc1cnc[nH]1)[C@@H](C)O)C(=O)N[C@@H](C)C(=O)N[C@@H](CC(C)C)C(=O)N[C@@H](CC(=O)O)C(=O)N[C@@H](CCCCN)C(=O)N[C@@H](CC(C)C)C(=O)N[C@@H](C)C(=O)N[C@@H](C)C(=O)N[C@@H](CCCNC(=N)N)C(=O)N[C@@H](CC(=O)O)C(=O)N[C@@H](Cc1ccccc1)C(=O)N[C@H](C(=O)N[C@@H](CC(N)=O)C(=O)N[C@@H](Cc1c[nH]c2ccccc12)C(=O)N[C@@H](CC(C)C)C(=O)N[C@@H](CC(C)C)C(=O)N[C@@H](CCC(N)=O)C(=O)N[C@H](C(=O)N[C@@H](CCCCN)C(N)=O)[C@@H](C)O)C(C)C`, for which inhibition in the test with RAW264.7 was half-maximal at 0.0168 nM (IC50).
In the case of `CC[C@H](C)[C@H](NC(=O)[C@H](CO)NC(=O)[C@H](CCSC)NC(=O)[C@H](CC(=O)O)NC(=O)[C@H](CO)NC(=O)[C@@H](NC(=O)[C@H](Cc1ccccc1)NC(=O)[C@H](CO)NC(=O)CNC(=O)[C@H](CCC(=O)O)NC(=O)CNC(=O)[C@@H](N)Cc1cnc[nH]1)C(C)C)C(=O)N[C@H](C(=O)N[C@@H](CC(C)C)C(=O)N[C@@H](CC(=O)O)C(=O)N[C@@H](CCCCN)C(=O)N[C@@H](CC(C)C)C(=O)N[C@@H](C)C(=O)N[C@@H](C)C(=O)N[C@@H](CCCNC(=N)N)C(=O)N[C@@H](CC(=O)O)C(=O)N[C@@H](Cc1ccccc1)C(=O)N[C@H](C(=O)N[C@@H](CC(N)=O)C(=O)N[C@@H](Cc1c[nH]c2ccccc12)C(=O)N[C@@H](CC(C)C)C(=O)N[C@@H](CC(C)C)C(=O)N[C@@H](CCC(N)=O)C(=O)N[C@H](C(=O)N[C@@H](CCCCN)C(N)=O)[C@@H](C)O)C(C)C)C(C)C`, the IC50 – broadly, the concentration at which inhibition is half-maximal – in test [1] is recorded as “Non-Toxic”.
For the compound `CC[C@H](C)[C@H](NC(=O)[C@H](CO)NC(=O)[C@H](Cc1ccc(O)cc1)NC(=O)[C@H](CC(=O)O)NC(=O)[C@H](CO)NC(=O)[C@@H](NC(=O)[C@H](Cc1ccccc1)NC(=O)[C@@H](NC(=O)CNC(=O)[C@H](CCC(=O)O)NC(=O)[C@@H](C)NC(=O)[C@@H](N)Cc1ccc(O)cc1)[C@@H](C)O)[C@@H](C)CC)C(=O)N[C@@H](C)C(=O)N[C@@H](CCSC)C(=O)N[C@@H](CC(=O)O)C(=O)N[C@@H](CCCCN)C(=O)N[C@H](C(=O)N[C@@H](Cc1cnc[nH]1)C(=O)N[C@@H](CCC(N)=O)C(=O)N[C@@H](CCC(N)=O)C(=O)N[C@@H](CC(=O)O)C(=O)N[C@@H](Cc1ccccc1)C(=O)N[C@H](C(=O)N[C@@H](CC(N)=O)C(=O)N[C@@H](Cc1c[nH]c2ccccc12)C(=O)N[C@@H](CC(C)C)C(=O)N[C@@H](CC(C)C)C(=O)N[C@@H](C)C(=O)N[C@@H](CCC(N)=O)C(=O)N[C@@H](CCCCN)C(N)=O)C(C)C)[C@@H](C)CC`, the concentration for half-maximal inhibition (IC50) with RAW264.7 turned out to be 0.0401 nM. In addition, the outcome in the test on HEK293 was Active.
`CC[C@H](C)[C@H](NC(=O)[C@H](CO)NC(=O)[C@H](Cc1ccccc1)NC(=O)[C@H](CC(=O)O)NC(=O)[C@H](CO)NC(=O)[C@@H](NC(=O)[C@H](Cc1ccccc1)NC(=O)[C@H](CO)NC(=O)CNC(=O)[C@H](CCC(=O)O)NC(=O)CNC(=O)[C@@H](N)Cc1cnc[nH]1)C(C)C)C(=O)N[C@@H](C)C(=O)N[C@@H](CC(C)C)C(=O)N[C@@H](CC(=O)O)C(=O)N[C@@H](CCCCN)C(=O)N[C@@H](CC(C)C)C(=O)N[C@@H](C)C(=O)N[C@@H](C)C(=O)N[C@@H](CCCNC(=N)N)C(=O)N[C@@H](CC(=O)O)C(=O)N[C@@H](Cc1ccccc1)C(=O)N[C@H](C(=O)N[C@@H](CC(N)=O)C(=O)N[C@@H](Cc1c[nH]c2ccccc12)C(=O)N[C@@H](CC(C)C)C(=O)N[C@@H](CC(C)C)C(=O)N[C@@H](CCC(N)=O)C(=O)N[C@H](C(=O)N[C@@H](CCCCN)C(N)=O)[C@@H](C)O)C(C)C`: the midpoint of inhibition in the test with RAW264.7, the IC50, lay at 0.18 nM.
In turn, `CC[C@H](C)[C@H](NC(=O)[C@H](CO)NC(=O)[C@H](CCSC)NC(=O)[C@H](CCC(=O)O)NC(=O)[C@H](CO)NC(=O)[C@@H](NC(=O)[C@H](Cc1ccccc1)NC(=O)[C@H](CO)NC(=O)CNC(=O)[C@H](CCC(=O)O)NC(=O)CNC(=O)[C@@H](N)Cc1cnc[nH]1)C(C)C)C(=O)N[C@H](C(=O)N[C@@H](CC(C)C)C(=O)N[C@@H](CC(=O)O)C(=O)N[C@@H](CCCCN)C(=O)N[C@@H](CC(C)C)C(=O)N[C@@H](C)C(=O)N[C@@H](C)C(=O)N[C@@H](CCCNC(=N)N)C(=O)N[C@@H](CC(=O)O)C(=O)N[C@@H](Cc1ccccc1)C(=O)N[C@H](C(=O)N[C@@H](CC(N)=O)C(=O)N[C@@H](Cc1c[nH]c2ccccc12)C(=O)N[C@@H](CC(C)C)C(=O)N[C@@H](CC(C)C)C(=O)N[C@@H](CCC(N)=O)C(=O)N[C@H](C(=O)N[C@@H](CCCCN)C(N)=O)[C@@H](C)O)C(C)C)C(C)C` displayed an IC50 with RAW264.7 of 4.63 nM.
In turn, `CSCC[C@H](NC(=O)[C@H](CC(=O)O)NC(=O)[C@H](CO)NC(=O)[C@@H](NC(=O)[C@H](Cc1ccccc1)NC(=O)[C@H](CO)NC(=O)CNC(=O)[C@H](CCC(=O)O)NC(=O)CNC(=O)[C@@H](N)Cc1cnc[nH]1)C(C)C)C(=O)N[C@@H](CO)C(=O)N[C@H](C(=O)N[C@H](C(=O)N[C@@H](CC(C)C)C(=O)N[C@@H](CC(=O)O)C(=O)N[C@@H](CCCCN)C(=O)N[C@@H](CC(C)C)C(=O)N[C@@H](C)C(=O)N[C@@H](C)C(=O)N[C@@H](CCCNC(=N)N)C(=O)N[C@@H](CC(=O)O)C(=O)N[C@@H](Cc1ccccc1)C(=O)N[C@H](C(=O)N[C@@H](CC(N)=O)C(=O)N[C@@H](Cc1c[nH]c2ccccc12)C(=O)N[C@@H](CC(C)C)C(=O)N[C@@H](CC(C)C)C(=O)N[C@@H](CCC(N)=O)C(=O)N[C@H](C(=O)N[C@@H](CCCCN)C(N)=O)[C@@H](C)O)C(C)C)C(C)C)C(C)C` had an IC50 in the test with RAW264.7 of 0.0116 nM.
`CC(C)C[C@H](NC(=O)[C@H](CCCCN)NC(=O)[C@H](CC(=O)O)NC(=O)[C@H](CC(C)C)NC(=O)[C@@H](NC(=O)[C@@H](NC(=O)[C@H](CO)NC(=O)[C@H](Cc1ccccc1)NC(=O)[C@H](CC(=O)O)NC(=O)[C@H](CO)NC(=O)[C@@H](NC(=O)[C@H](Cc1ccccc1)NC(=O)[C@H](CO)NC(=O)CNC(=O)[C@H](CCC(=O)O)NC(=O)CNC(=O)[C@@H](N)Cc1cnc[nH]1)C(C)C)C(C)C)C(C)C)C(=O)N[C@@H](C)C(=O)N[C@@H](C)C(=O)N[C@@H](CCCNC(=N)N)C(=O)N[C@@H](CC(=O)O)C(=O)N[C@@H](Cc1ccccc1)C(=O)N[C@H](C(=O)N[C@@H](CC(N)=O)C(=O)N[C@@H](Cc1c[nH]c2ccccc12)C(=O)N[C@@H](CC(C)C)C(=O)N[C@@H](CC(C)C)C(=O)N[C@@H](CCC(N)=O)C(=O)N[C@H](C(=O)N[C@@H](CCCCN)C(N)=O)[C@@H](C)O)C(C)C` showed an IC50 in the test on RAW264.7 of 0.0096 nM.
As for `CC(C)C[C@H](NC(=O)[C@H](CCCCN)NC(=O)[C@H](CC(=O)O)NC(=O)[C@H](CC(C)C)NC(=O)[C@@H](NC(=O)[C@@H](NC(=O)[C@H](CO)NC(=O)[C@H](CC(C)C)NC(=O)[C@H](CC(=O)O)NC(=O)[C@H](CO)NC(=O)[C@@H](NC(=O)[C@H](Cc1ccccc1)NC(=O)[C@H](CO)NC(=O)CNC(=O)[C@H](CCC(=O)O)NC(=O)CNC(=O)[C@@H](N)Cc1cnc[nH]1)C(C)C)C(C)C)C(C)C)C(=O)N[C@@H](C)C(=O)N[C@@H](C)C(=O)N[C@@H](CCCNC(=N)N)C(=O)N[C@@H](CC(=O)O)C(=O)N[C@@H](Cc1ccccc1)C(=O)N[C@H](C(=O)N[C@@H](CC(N)=O)C(=O)N[C@@H](Cc1c[nH]c2ccccc12)C(=O)N[C@@H](CC(C)C)C(=O)N[C@@H](CC(C)C)C(=O)N[C@@H](CCC(N)=O)C(=O)N[C@H](C(=O)N[C@@H](CCCCN)C(N)=O)[C@@H](C)O)C(C)C`, it took 0.0107 nM to reach half-maximal inhibition with RAW264.7 (IC50).
